Assay results from patent US9512059B2, “Killing of bed bugs” (BEDOUKIAN RESEARCH, INC., priority 2012, dated 2016).

These compounds were tested on bed bugs (assay: forced exposure toxicity test on treated filter paper circles). Conditions: compound diluted 5% in acetone, bed bug mortality at 24 hours.
Format: in vivo, Cimex species
Procedure: Toxicity of compounds of structure (I) was determined by forced exposure testing under the following protocol. Five filter paper circles were laid on a flat surface and treated with the test compounds. Five replicates of five bed bugs were released onto each of the treated paper circles. Petri dish bottoms with circular openings were placed over the treated paper circles and served as the exposure arenas. The sides of the Petri dish bottoms were also painted with Fluon to prevent the bed bugs from climbing the sides. The bed bugs were thus confined to the treated paper circles for the duration of the test. Observations were made for mortality of the bed bugs at 24 hours.

| Structure (SMILES) | Mortality @ 24 hours [%] |
| --- | --- |
| CCCCC1CC(=O)C=C(C)C1 (centres unmarked) [3-Methyl-5-Butyl-2-Cyclohexen-1-one] | 50 |
| CCC1CC(=O)C=C(C)C1 (centres unmarked) [3-Methyl-5-Ethyl-2-Cyclohexenone] | 78 |
| CC1=CC(O)CC(CC(C)C)C1 (centres unmarked) [3-Methyl-5-Isobutyl-2-cyclohexenol] | 10 |
| CCCC1CC(C)=CC(O)C1 (centres unmarked) [3-Methyl-5-propyl-2-cyclohexenol] | 60 |
| CCCC1CC(=O)C=C(C)C1 (centres unmarked) [3-Methyl-5-propyl-2-cyclohexenone] | 100 |
